Assay results taken from US8143278B2, “Organic compounds” (Novartis AG, priority 2006, dated 2012).

Experiments:
aldosterone synthase = biological target: T1, aldosterone synthase (Homo sapiens, UniProt P19099); assay: in vitro aldosterone synthase inhibition (ASI cell), aldosterone production in NCI-H295R cells; assay type: cell-based; details: 1 μM Ang II, 24 hr
T1 construct: host or cells: NCI-H295R human adrenocortical carcinoma cells
T1 sequence (P19099 25-503): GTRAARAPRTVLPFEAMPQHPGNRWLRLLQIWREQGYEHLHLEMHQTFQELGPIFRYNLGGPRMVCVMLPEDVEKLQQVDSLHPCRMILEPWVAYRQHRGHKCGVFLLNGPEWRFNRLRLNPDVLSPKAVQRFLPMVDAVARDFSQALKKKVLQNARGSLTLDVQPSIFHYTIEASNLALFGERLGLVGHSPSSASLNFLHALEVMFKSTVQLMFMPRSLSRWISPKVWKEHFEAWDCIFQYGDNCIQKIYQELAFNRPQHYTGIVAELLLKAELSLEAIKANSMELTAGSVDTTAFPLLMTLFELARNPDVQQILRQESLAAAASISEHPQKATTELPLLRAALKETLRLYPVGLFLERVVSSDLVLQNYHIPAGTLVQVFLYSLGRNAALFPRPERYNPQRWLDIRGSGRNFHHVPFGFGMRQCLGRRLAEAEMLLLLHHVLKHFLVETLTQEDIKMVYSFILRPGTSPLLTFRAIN
Source text: Human adrenocortical carcinoma NCI-H295R cell line is obtained from American Type Culture Collection (Manassas, Va.). Insulin/transferrin/selenium (ITS)-A supplement (100×), DMEM/F-12, antibiotic/antimycotic (100×), and fetal calf serum (FCS) are purchased from Gibco (Grand Island, N.Y.). Anti-mouse PVT scintillation proximity assay (SPA) beads and NBS 96-well plates are obtained from Amersham (Piscataway, N.J.) and Corning (Acton, Mass.), respectively. Solid black 96-well flat bottom plates are purchased from Costar (Corning, N.Y.). Aldosterone and angiotensin (Ang II) are purchased from Sigma (St. Louis, Mo.). D[1,2,6,7-^3H(N)]aldosterone was acquired from PerkinElmer (Boston, Mass.). Nu-serum was a product of BD Biosciences (Franklin Lakes, N.J.). The NADPH regenerating system, dibenzylfluorescein (DBF), and human aromatase Supersomes® are obtained from Gentest (Woburn, Mass.).
For in vitro measurement of aldosterone activity, human adrenocortical carcinoma NCI-H295R cells are seeded in NBS 96-well plates at a density of 25,000 cells/well in 100 μl of a growth medium containing DMEM/F12 supplemented with 10% FCS, 2.5% Nu-serum, 1 μg ITS/ml, and 1× antibiotic/antimycotic. The medium is changed after culturing for 3 days at 37° C. under an atmosphere of 5% CO2/95% air. On the following day, cells are rinsed with 100 μl of DMEM/F12 and incubated with 100 μl of treatment medium containing 1 μM Ang II and a compound at different concentrations in quadruplicate wells at 37° C. for 24 hr. At the end of incubation, 50 μl of medium is withdrawn from each well for measurement of aldosterone production by an RIA using mouse anti-aldosterone monoclonal antibodies.
Measurement of aldosterone activity can also be performed using a 96-well plate format. Each test sample is incubated with 0.02 μCi of D-[1,2,6,7-^3H(N)]aldosterone and 0.3 μg of anti-aldosterone antibody in phosphate-buffered saline (PBS) containing 0.1% Triton X-100, 0.1% bovine serum albumin, and 12%, glycerol in a total volume of 200 μl at room temperature for 1 hr. Anti-mouse PVT SPA beads (50 μl) are then added to each well and incubated overnight at room temperature prior to counting in a Microbeta plate counter. The amount of aldosterone in each sample is calculated by comparing with a standard curve generated using known quantities of the hormone.
Full concentration-response curves of the test compound are performed at least 3 times. The IC50 values are derived using a non-linear least squares curve-fitting program from Microsoft XLfit.

CYP11B1 = biological target: T2, CYP11B1 (Homo sapiens, UniProt P15538); assay: in vitro CYP11B1 inhibition in NCI-H295R cells; assay type: cell-based; details: read-out: % inhibition CYP11B1 @ 10 nM
T2 construct: Thus, the NCI-H295R cells have CYP11B1 (steroid 11 p-hydroxylase); host or cells: NCI-H295R human adrenocortical carcinoma cells
T2 sequence (P15538 25-503): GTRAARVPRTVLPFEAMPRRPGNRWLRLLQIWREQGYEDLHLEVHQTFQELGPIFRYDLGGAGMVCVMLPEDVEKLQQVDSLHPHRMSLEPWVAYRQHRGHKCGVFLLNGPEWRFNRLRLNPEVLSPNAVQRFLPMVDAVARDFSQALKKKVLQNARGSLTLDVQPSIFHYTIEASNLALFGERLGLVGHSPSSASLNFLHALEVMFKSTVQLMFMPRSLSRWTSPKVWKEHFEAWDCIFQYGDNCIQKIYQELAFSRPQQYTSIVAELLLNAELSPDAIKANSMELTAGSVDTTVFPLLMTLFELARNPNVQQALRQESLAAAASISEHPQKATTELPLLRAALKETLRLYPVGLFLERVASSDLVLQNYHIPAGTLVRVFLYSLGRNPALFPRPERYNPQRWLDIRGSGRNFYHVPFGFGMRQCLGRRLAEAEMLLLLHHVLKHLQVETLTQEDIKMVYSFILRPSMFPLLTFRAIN
Source text: The cell line NCI-H295R was originally isolated from an adrenocortical carcinoma and has been characterized in the literature through the stimulable secretion of steroid hormones and the presence of the enzymes essential for steroidogenesis. Thus, the NCI-H295R cells have CYP11B1 (steroid 11 p-hydroxylase). The cells show the physiological property of zonally undifferentiated human foetal adrenocortical cells which, however, have the capacity to produce the steroid hormones which are formed in the three, phenotypically distinguishable zones in the adult adrenal cortex. […]
The excretion of aldosterone, cortisol, corticosterone and estradiol/estrone into the culture medium can be detected and quantified by commercially available, specific monoclonal antibodies in radioimmunoassays in accordance with the manufacturer's instructions.
Inhibition of the release of certain steroids can be used as a measure of the respective enzyme inhibition by the added test compounds. The dose-dependent inhibition of enzymic activity by a compound is calculated by means of an inhibition plot which is characterized by an IC50. […]

SMILES: Cc1noc(-c2cncn2C2c3ccccc3NC(=O)C2(C)C)n1 (racemic) [Compound 10, 3,3-Dimethyl-4-[5-(3-methyl-[1,2,4]oxadiazol-5-yl)-imidazol-1-yl]-3,4-dihydro-1H-quinolin-2-one]
- IC50 (aldosterone synthase): 137 nM

SMILES: CN1C(=O)C(C)(C)C(n2ccnc2)c2ccccc21 (racemic) [Compound 7, 4-Imidazol-1-yl-1,3,3-trimethyl-3,4-dihydro-1H-quinolin-2-one]
- inhibition at 0.01 µM (CYP11B1): 100%
- IC50 (aldosterone synthase): 10 nM

SMILES: CC1(C)C(=O)Nc2cccc(Cl)c2C1n1cncc1CO (racemic) [Compound 8, 5-Chloro-4-(5-hydroxymethyl-imidazol-1-yl)-3,3-dimethyl-3,4-dihydro-1H-quinolin-2-one]
- IC50 (aldosterone synthase): 7 nM

SMILES: Cc1cncn1C1c2ccc(F)cc2NC(=O)C1(C)C (racemic) [Compound 9, 7-Fluoro-3,3-dimethyl-4-(5-methyl-imidazol-1-yl)-3,4-dihydro-1H-quinolin-2-one]
- IC50 (aldosterone synthase): 12 nM

SMILES: COc1ccc2c(c1)NC(=O)C(C)(C)C2n1ccnc1 (racemic) [Compound 6, 7-methoxy-4-Imidazol-1-yl-3,3-dimethyl-3,4-dihydro-1H-quinolin-2-one]
- inhibition at 0.01 µM (CYP11B1): 84%
- IC50 (aldosterone synthase): 34 nM
